Like-named read-outs stand apart in the source and are kept apart here.
Assays:
[1] = molecular target: WDR5 protein (Homo sapiens (Human), UniProt P61964); assay: Surface Plasmon Resonance (SPR) assay; assay type: binding; settings: for residence time: τ=1/koff, read-out: Residence Time (t, min)
[2] = molecular target: MLL1-WRAD2 complex (Homo sapiens (Human), UniProt P61964); assay: MLL1-WRAD2 enzyme assay (in vitro methyl transferase assay); assay type: biochemical
Procedure: Reaction was initiated with 1 μM 3H-SAM and incubated for 1 hour at 30° C. Reaction mixture was transferred to P81 filter-paper and washed with PBS before detection.

[3] = SPR, Table 1, read-out: WDR5 binding affinity (KD)
[4] = SPR, Table 2, read-out: WDR5 binding affinity SPR (KD)
[5] = MLL1-WRAD2 assay, read-out: In vitro MLL1 activity (IC50)
[6] = Table 4, effect of Fluoro-substitution, read-out: KD (SPR)

| Kd [1, 3] [µM] | Kd [1, 4] [µM] | residence time ([1]; SPR) [min] | SMILES | also measured |
| --- | --- | --- | --- | --- |
| – | – | – | CN(C)C1CCN(c2ccc(-c3cc(CN4CCOCC4)ccc3F)cc2NC(=O)c2c[nH]c(=O)cc2C(F)(F)F)C1 (stereo not shown) [Example 87, N-(4-(3-(dimethylamino)pyrrolidin-1-yl)-2′-fluoro-5′-(morpholinomethyl)-[1,1′-biphenyl]-3-yl)-6-oxo-4-(trifluoromethyl)-1,6-dihydropyridine-3-carboxamide] | IC50 [2, 5]: 3.89 µM |
| 5.93 | 5.93 | – | CN1CC2CN(c3ccc(-c4cc(CN5CCOCC5)ccc4F)cc3NC(=O)c3c[nH]c(=O)cc3C(F)(F)F)CC2C1 (stereo not shown) [Example 100, N-(2′-fluoro-4-(5-methylhexahydropyrrolo[3,4-c]pyrrol-2(1H)-yl)-5′-(morpholinomethyl)-[1,1′-biphenyl]-3-yl)-6-oxo-4-(trifluoromethyl)-1,6-dihydropyridine-3-carboxamide] | – |
| 2.27 | 2.27 | – | CN(C)C1CCN(c2ccc(-c3cc(CN4CCOCC4)ccc3F)cc2NC(=O)c2cn(C)c(=O)cc2C(F)(F)F)C1 (stereo not shown) [Example 101, N-(4-(3-(dimethylamino)pyrrolidin-1-yl)-2′-fluoro-5′-(morpholinomethyl)-[1,1′-biphenyl]-3-yl)-1-methyl-6-oxo-4-(trifluoromethyl)-1,6-dihydropyridine-3-carboxamide] | – |
| > 0.2 | > 0.2 | – | CN1CCN(c2ccc(-c3cc(CN4CCOCC4)ccc3F)cc2NC(=O)c2cc(F)cc3[nH]cnc23)CC1 [Example 102, 6-fluoro-N-(2′-fluoro-4-(4-methylpiperazin-1-yl)-5′-(morpholinomethyl)-[1,1′-biphenyl]-3-yl)-1H-benzo[d]imidazole-4-carboxamide] | – |
| > 0.2 | > 0.2 | – | CN1CCN(c2ccc(-c3cc(CN4CCOCC4)ccc3F)cc2NC(=O)c2nc3ccccc3[nH]2)CC1 [Example 103, N-(2′-fluoro-4-(4-methylpiperazin-1-yl)-5′-(morpholinomethyl)-[1,1′-biphenyl]-3-yl)-1H-benzo[d]imidazole-2-carboxamide] | – |
| 4 | 4 | – | C[C@H]1CN(C)CCN1c1ccc(-c2cc(CN3CCOCC3)ccc2F)cc1NC(=O)c1c[nH]c(=O)cc1C(F)(F)F [Example 104, (S)—N-(4-(2,4-dimethylpiperazin-1-yl)-2′-fluoro-5′-(morpholinomethyl)-[1,1′-biphenyl]-3-yl)-6-oxo-4-(trifluoromethyl)-1,6-dihydropyridine-3-carboxamide] | – |
| 1.95 | 1.95 | – | CN1CCN(c2ccc(-c3cc(CN4CCOCC4)ccc3F)cc2NC(=O)c2ccc(=O)[nH]c2)CC1 [Example 105, N-(2′-fluoro-4-(4-methylpiperazin-1-yl)-5′-(morpholinomethyl)-[1,1′-biphenyl]-3-yl)-6-oxo-1,6-dihydropyridine-3-carboxamide] | – |
| 0.0083 | 0.829 | 3.2 | CC(=O)Nc1cc(C)c(C(=O)Nc2cc(-c3cc(CN4CCOCC4)ccc3F)ccc2N2CCN(C)CC2)cn1 [Example 106, 6-acetamido-N-(2′-fluoro-4-(4-methylpiperazin-1-yl)-5′-(morpholinomethyl)-[1,1′-biphenyl]-3-yl)-4-methylnicotinamide] | – |
| > 0.2 | > 0.2 | – | COc1cc(C(F)(F)F)c(C(=O)Nc2cc(-c3cc(CN4CCN(CC5CC5)CC4)ccc3F)ccc2N2CCN(C)CC2)cn1 [Example 107, N-(5′-((4-(cyclopropylmethyl)piperazin-1-yl)methyl)-2′-fluoro-4-(4-methylpiperazin-1-yl)-[1,1′-biphenyl]-3-yl)-6-methoxy-4-(trifluoromethyl)nicotinamide] | – |
| > 0.2 | > 0.2 | – | CNc1cc(C(F)(F)F)c(C(=O)Nc2cc(-c3cc(CN4CCOCC4)ccc3F)ccc2N2CCN(C)CC2)cn1 [Example 108, N-(2′-fluoro-4-(4-methylpiperazin-1-yl)-5′-(morpholinomethyl)-[1,1′-biphenyl]-3-yl)-6-(methylamino)-4-(trifluoromethyl)nicotinamide] | – |
| > 0.2 | > 0.2 | – | CN1CCN(c2ccc(-c3cc(CN4CCOCC4)ccc3F)cc2NC(=O)c2cnc(N)cc2C(F)(F)F)CC1 [Example 109, 6-amino-N-(2′-fluoro-4-(4-methylpiperazin-1-yl)-5′-(morpholinomethyl)-[1,1′-biphenyl]-3-yl)-4-(trifluoromethyl)nicotinamide] | – |
| 0.023 | 0.023 | 1.3 | C[C@@H]1CN(c2ccc(-c3ccc(F)c(CN(C)C4COC4)c3F)cc2NC(=O)c2c[nH]c(=O)cc2C(F)(F)F)C[C@H](C)N1C [Example 112, N-(2′,4′-difluoro-3′-((methyl(oxetan-3-yl)amino)methyl)-4-((3S,5R)-3,4,5-trimethylpiperazin-1-yl)-[1,1′-biphenyl]-3-yl)-6-oxo-4-(trifluoromethyl)-1,6-dihydropyridine-3-carboxamide] | – |
| 0.055 | 0.055 | 1.5 | C[C@@H]1CN(c2ccc(-c3c(F)cc(CNC4CCCCC4)cc3F)cc2NC(=O)c2c[nH]c(=O)cc2C(F)(F)F)C[C@H](C)N1C [Example 115, N-(4′-((cyclohexylamino)methyl)-2′,6′-difluoro-4-((3S,5R)-3,4,5-trimethylpiperazin-1-yl)-[1,1′-biphenyl]-3-yl)-6-oxo-4-(trifluoromethyl)-1,6-dihydropyridine-3-carboxamide] | – |
| 0.0017 | 0.0016 | 7.9 | C[C@@H]1CN(c2ccc(-c3ccc(C(N)=O)cc3F)cc2NC(=O)c2c[nH]c(=O)cc2C(F)(F)F)C[C@H](C)N1C [Example 117, N-(4′-carbamoyl-2′-fluoro-4-((3S,5R)-3,4,5-trimethylpiperazin-1-yl)-[1,1′-biphenyl]-3-yl)-6-oxo-4-(trifluoromethyl)-1,6-dihydropyridine-3-carboxamide] | – |
| 0.0037 | 0.004 | 2.8 | C[C@@H]1CN(c2ccc(-c3cc(C(N)=O)ccc3F)cc2NC(=O)c2c[nH]c(=O)cc2C(F)(F)F)C[C@H](C)N1C [Example 119, N-(5′-carbamoyl-2′-fluoro-4-((3S,5R)-3,4,5-trimethylpiperazin-1-yl)-[1,1′-biphenyl]-3-yl)-6-oxo-4-(trifluoromethyl)-1,6-dihydropyridine-3-carboxamide] | – |
| 0.006 | 0.006 | 12.5 | C[C@@H]1CN(c2ccc(-c3cc(C(=O)NC(C)(C)CC(C)(C)C)c(F)cc3F)cc2NC(=O)c2c[nH]c(=O)cc2C(F)(F)F)C[C@H](C)N1C [Example 120, N-(2′,4′-difluoro-5′-((2,4,4-trimethylpentan-2-yl)carbamoyl)-4-((3S,5R)-3,4,5-trimethylpiperazin-1-yl)-[1,1′-biphenyl]-3-yl)-6-oxo-4-(trifluoromethyl)-1,6-dihydropyridine-3-carboxamide] | – |
| 0.0092 | 0.009 | 2.3 | C[C@@H]1CN(c2ccc(-c3cc(C(N)=O)c(F)cc3F)cc2NC(=O)c2c[nH]c(=O)cc2C(F)(F)F)C[C@H](C)N1C [Example 121, N-(5′-carbamoyl-2′,4′-difluoro-4-((3S,5R)-3,4,5-trimethylpiperazin-1-yl)-[1,1′-biphenyl]-3-yl)-6-oxo-4-(trifluoromethyl)-1,6-dihydropyridine-3-carboxamide] | – |
| 0.0076 | 0.008 | 6.7 | C[C@@H]1CN(c2ccc(-c3ccc(C(=O)NC(C)(C)CC(C)(C)C)c(F)c3F)cc2NC(=O)c2c[nH]c(=O)cc2C(F)(F)F)C[C@H](C)N1C [Example 122, N-(2′,3′-difluoro-4′-((2,4,4-trimethylpentan-2-yl)carbamoyl)-4-((3S,5R)-3,4,5-trimethylpiperazin-1-yl)-[1,1′-biphenyl]-3-yl)-6-oxo-4-(trifluoromethyl)-1,6-dihydropyridine-3-carboxamide] | – |
| 0.0036 | 0.004 | 4.2 | C[C@@H]1CN(c2ccc(-c3ccc(C(N)=O)c(F)c3F)cc2NC(=O)c2c[nH]c(=O)cc2C(F)(F)F)C[C@H](C)N1C [Example 123, N-(4′-carbamoyl-2′,3′-difluoro-4-((3S,5R)-3,4,5-trimethylpiperazin-1-yl)-[1,1′-biphenyl]-3-yl)-6-oxo-4-(trifluoromethyl)-1,6-dihydropyridine-3-carboxamide] | – |
| – | – | – | CN1CCN(c2ccc(-c3cc(CN4CCOCC4)ccc3Cl)cc2NC(=O)c2c[nH]c(=O)cc2C(F)(F)F)CC1 [drawing 288, reference compound] | Kd [1, 6]: 0.0345 µM |
| – | – | – | CN1CCN(c2ccc(-c3cc(CN4CCOCC4)ccc3F)cc2NC(=O)c2c[nH]c(=O)cc2C(F)(F)F)CC1 [drawing 289] | IC50 ([2]; Table 4, effect of Fluoro-substitution, read-out: IC50 (MLL1)): 0.939 µM |
| – | – | – | CN1CCN(c2ccc(-c3cc(C(=O)NC4CCCCC4)ccc3F)cc2NC(=O)c2c[nH]c(=O)cc2C(F)(F)F)CC1 [drawing 291] | Kd [1, 6]: 0.006 µM |
| – | – | – | CN1CCN(c2ccc(-c3cccc(CN4CCC(F)CC4)c3)cc2NC(=O)c2c[nH]c(=O)cc2C(F)(F)F)CC1 [reference compound] | τ ([1]; Table 4, effect of Fluoro-substitution): 0.91 min; Kd [1, 6]: 0.03 µM |

| SMILES | Kd [1, 3] [µM] | Kd [1, 4] [µM] | residence time ([1]; SPR) [min] | also measured |
| --- | --- | --- | --- | --- |
| CC(C)COc1ccc(F)c(-c2ccc(N3CCN(C)CC3)c(NC(=O)c3c[nH]c(=O)cc3C(F)(F)F)c2)c1 [Example 6, N-(2′-fluoro-5′-isobutoxy-4-(4-methylpiperazin-1-yl)-[1,1′-biphenyl]-3-yl)-6-oxo-4-(trifluoromethyl)-1,6-dihydropyridine-3-carboxamide] | 0.076 | 0.076 | 0.19 | IC50 [2, 5]: 2.51 µM |
| C[C@@H]1CN(c2ccc(-c3ccc(N4CCOCC4)cc3F)cc2NC(=O)c2c[nH]c(=O)cc2C(F)(F)F)C[C@H](C)N1C [Example 118, N-(2′-fluoro-4′-morpholino-4-((3S,5R)-3,4,5-trimethylpiperazin-1-yl)-[1,1′-biphenyl]-3-yl)-6-oxo-4-(trifluoromethyl)-1,6-dihydropyridine-3-carboxamide] | – | 0.006 | 7.2 | Kd [1]: 0.0056 µM |
